In patent US9801922B2, “Compositions and methods of treating cancer” (UNIVERSITY OF IOWA RESEARCH FOUNDATION, priority 2011, dated 2017):

Legend:
Type in all cases: cell-based, human
[1] = system: SUM159 cells; test: MitoSOX red oxidation, SUM159
Method: FIGS. 4A-4C: MitoSOX oxidation in SUM159, MDA-MB231 and HMECs cells treated with BSO, DTPP and AUR. Asynchronously growing cultures of SUM159 (Panel A) MDA-MB231 (Panel B) and HMECs (Panel C) were plated and treated as described in FIG. 1. Monolayer cultures were harvested and trypsinized, washed once with PBS and labeled 20 minutes with 2 μM MitoSOX (in 0.1% DMSO) in PBS containing 5 mM pyruvate at 37° C. Each sample was then analyzed for the Mean fluorescence Intensity (MFI) of 10,000 cells by flow cytometry. Samples were assayed in triplicate; mean±1 SD of 1 experiment containing 3 treatment dishes per group (n=3), * or ^p<0.001 as compared to Control.
MitoSOX™ red oxidation to estimate mitochondrial superoxide production: To determine if DTPP can alter steady-state levels of superoxide originating from mitochondria in SUM159, MDA-MB231 and HMEC cells, the cationic superoxide sensitive dye, MitoSOX™red (Molecular Probes), was used. Cells were plated and treated as described earlier in clonogenic survival experiment. After the exposure, cells were trypsinized and washed with 5 mM/L pyruvate containing PBS once then labeled with MitoSOX™red (2 μM, in 0.1% DMSO, 20 minutes) at 37° C. After labeling, cells were kept on ice. Samples were analyzed using a FACScan flowcytometer (Becton Dickinson Immunocytometry System, INC., Mountain View, Calif.) (excitation 488 nm, emission 585 nm band-pass filter). The mean fluorescence intensity of 10,000 cells was analyzed in each sample and corrected for autofluorescence from unlabeled cells. The MFI data was normalized to control levels.

[2] = system: SUM159 cells; test: Glutathione analysis (total GSH, GSSG); settings: for % GSSG: untreated 1.13%
Method: (§1) FIG. 18: Intracellular GSH&GSSG measured in BSO, DTPP, and AUR exposed SUM159 cells. Asynchronously growing cultures of SUM159 were plated and treated as described in FIG. 1. Cells were harvested and scraped in PBS at 4° C. Whole cell homogenates were used for biochemical analysis of total GSH & GSSG levels. Errors represent Mean ±1 SD of 4 samples from two separate experiments (n=4).
Glutathione analysis: SUM159 Cells were plated and treated with BSO, DTPP and AUR as described above. When cells were grown to 70-80% confluency on 100 mm dishes and scraped in PBS at 4° C., centrifuged, and the cell pellets were frozen at −20° C. until analysis. Samples were thawed and whole homogenates were prepared as described and total glutathione (GSH+GSSG) was determined using a recycling method (Spitz, D. R.; Malcolm, R. R.; Roberts, R. J. Cytotoxicity and metabolism of 4-hydroxy-2-nonenal and 2-nonenal in H2O2-resistant cell lines. Do aldehydic by-products of lipid peroxidation contribute to oxidative stress? Biochem J 267:453-459; 1990; Griffith, O. W. Determination of glutathione and glutathione disulfide using glutathione reductase and 2-vinylpyridine. Anal Biochem 106:207-212; 1980). All biochemical determinations were normalized to the protein content using the method of bicinchoninic acid protein assay.

[3] = system: thioredoxin reductase (TRR); test: Thioredoxin reductase activity assay in treated SUM159 cells; settings: for TRR activity: control 135
Method: as §1, with “8:” for “18:”, “thioredoxin reductase (TRR) activity” for “GSH&GSSG”, “thioredoxin reductase activity.” for “total GSH & GSSG levels.”, “Mean±1” for “Mean ±1”, “(n=4). *p<0.001 as compared to Control.” for “(n=4).”
Thioredoxin Reductase Assay: Thioredoxin Reductase activity was measured by using Thioredoxin Reductase Assay Kit purchased from Sigma (St Louis, Mo.). 400,000 cells/100 mm dishes of SUM159 cells were plated and treated with BSO, DTPP and AUR as described above. When cells were grown to 70-80% confluency on 100 mm dishes and scraped in PBS at 4° C., centrifuged, and the cell pellets were frozen at −20° C. until analysis. The assay was performed according to manufacturer's instructions. Briefly, working buffer containing 100 mM KPO4, pH 7.0, 10 mM EDTA, and 0.24 mM NADPH was prepared, and samples were added with working buffer along with 5,5′-dithiobis-(2-nitrobenzoic acid) (Eliman's reagent, DTNB). The rate of DTNB's reduction to 2-nitro-5-thiobenzoate (TNB) was then measured spectrophotometrically at […]. For each sample, this reaction was replicated, in tandem, with the sample in the presence of an inhibitor to thioredoxin reductase (TrxR), included with the kit. The difference between the sample rate with and without the TrxR inhibitor was taken to be the difference caused by TrxR activity in the sample. Each sample was then normalized to protein, by using the Lowry protein assay, as described previously (Lowry, O. H.; Rosebrough, N.J.; Farr, A. L.; Randall, R. J. Protein measurement with the Folin phenol reagent. J Biol Chem 193:265-275; 1951). The thioredoxin reductase activity of each sample was then normalized as a percentage of that of the control cells.

SMILES | change in MitoSOX oxidation, in words ([1]; SUM159) | effect on glutathione metabolism, in words [2] | TRR activity ([3]; 500 nM AUR 15 min) [mU/mg protein] | total GSH, in words ([2]; 24 hours) | % GSSG [2] [%] | effect on TRR activity, in words [3] | increase in MitoSOX red oxidation relative to control ([1]; SUM159, 1 μM DTPP, 100 μM BSO 24 h, 500 nM AUR 15 min) [fold] | total amount of mitochondrial O2.- of SUM159 cells relative to HMECs after DTPP ([1]; SUM159 vs HMEC) [fold] | increase in GSSG and % GSSG compared to untreated cells [2] [fold] | GSSG ([2]; untreated 0.06) [nmole GSSG/mg protein] | increase of TRR activity [3] [fold] | TRR activity ([3]; 1 μM DTPP 24 h) [mU/mg]
CC[PH](CC)(CC)[Au][S][C@@H]1O[C@H](COC(C)=O)[C@@H](OC(C)=O)[C@H](OC(C)=O)[C@H]1OC(C)=O [AUR, S-triethylphosphinegold(I)-2,3,4,6-tetra-O-acetyl-1-thio-β-D-glucopyranoside] | did not exhibit any change in MitoSOX oxidation | not capable of altering the glutathione metabolism | 10 | – | – | – | – | – | – | – | – | –
CCCCS(=N)(=O)CCC(N)C(=O)O [BSO, L-buthionine-[S,R]-sulfoximine, reference compound] | did not exhibit any change in MitoSOX oxidation | – | – | significant decreases in total GSH | 4.88 | not capable of altering the TRR activity | – | – | – | – | – | –
CCCCCCCCCC[P+](c1ccccc1)(c1ccccc1)c1ccccc1 [DTPP, Decyl-Triphenylphosphonium] | – | – | – | – | 3.65 | – | 9 | 2 | ~3 | 0.26 | 2 | 311
